Like-named read-outs stand apart in the source and are kept apart here.
Experiments:
[1] = Patient 1
[2] = not given; remark: listed apart in the source
[3] = Patient 2

| unusual symptoms (human, in vivo) | unusual symptoms such as dizziness, headache, or nausea (human, in vivo) | PAGN ([2]; human, in vivo) [µg/L] | complaints ([2]; human, in vivo) | Molecule | episodes of HE (Patient 7, HPN-100 6 mL BID, during 3 months) | ammonia (Patient 7, HPN-100 6 mL BID, follow up after 3 months (blood ammonia 85 μmol/L before therapy)) [µmol/L] | ammonia ([1]; HPN-100 9 mL/day, after overnight fasting) [µmol/L] | ammonia ([1]; HPN-100 9 mL/day, midday several hours after lunch) [µmol/L] | ammonia ([1]; HPN-100 12 mL/day for one week, after overnight fasting) [µmol/L] | ammonia ([1]; HPN-100 12 mL/day for one week, midday) [µmol/L] | symptoms (headache, lack of appetite) ([1]; after one week at HPN-100 12 mL/day) | ammonia ([2]; Patient 3, HPN-100 18 mL/day for the past month) [µmol/L] | ammonia ([3]; NaPBA 450 mg/Kg/day for one week) [µmol/L] | ammonia levels ([3]; NaPBA 600 mg/kg per day) [µmol/L] |
| --- | --- | --- | --- | --- | --- | --- | --- | --- | --- | --- | --- | --- | --- | --- |
| did not report any unusual symptoms | had not experienced any unusual symptoms | 259 | did not have any complaints | O=C(CCCc1ccccc1)OCC(COC(=O)CCCc1ccccc1)OC(=O)CCCc1ccccc1 [HPN-100, glyceryl tri-[4-phenylbutyrate]] | no episodes of HE | 30 | 55 | 117 | 9 | 35 | all symptoms resolved | 22 |  |  |
|  |  |  |  | sodium phenylbutyrate [NaPBA] |  |  |  |  |  |  |  |  | 20 | < 9 |
